According to patent US4683240A, “Pharmaceutical composition containing an imidazolidinetrione derivative or pharmaceutically acceptable salt thereof” (Nippon Zoki Pharmaceutical Co., Ltd., priority 1985, dated 1987):
Read-outs that look alike come from different tables or passages of the source.

Legend:
Format in all cases: in vivo, rat (Wistar-strain)
Serum Free Fatty Acid = experiment: Hypolipidemic effect: serum free fatty acid; settings: 2 h
Method: (§1) The test drugs suspended in 0.5% aqueous C.M.C. solution were orally administered to groups of 8 Wistar-strain male rats (weighing about 185 g) which were fasted for 18 to 20 hours. 2 hours later, the serum was obtained in the same manner described in (2). Serum triglyceride was measured according to the GPO-p-chlorophenol colorimetric determination [Richard W. Spayd et al., Clinical Chemistry, 24, 1343 (1978)], serum free fatty acid was measured according to the Acyl CoA Synthetase-Acyl CoA Oxidase method [Shimizu S. et al., Biochem. Biophys. Res. Commun., 91, 108 (1979)], free fatty acid was measured according to the enzymatic method [Charles C. Allain et al., Clin. Chem., 20, No. 4, 470 (1974)] and total cholesterol was measured according to the enzymatic method [Takayama M. et al., Clinica Chimica Acta, 79, 93 (1977)]. Asterisks indicate significant differences (*: p<0.05, **: p<00.01, ***: p<0.001) from the control.

Total Serum Cholesterol = experiment: Hypolipidemic effect: total serum cholesterol; settings: 2 h
Method: as §1

Serum Triglyceride = experiment: Hypolipidemic effect: serum triglyceride; settings: 2 h
Method: as §1

Blood Glucose = experiment: Hypoglycemic effect in glucose-loaded fasted rats (blood glucose); settings: for inhibition in vivo at 100 mg/kg: Rattus norvegicus, vs control, read-out: Blood Glucose Decrease; for inhibition in vivo at 100 mg/kg / Blood Glucose Level: 100 mg/kg oral, 2 h
Method: Groups of 7 Wistar-strain male rats (weighing about 200 g) which were fasted for 18 hours were used for measurement of hypoglycemic effect according to the modified method by Dulin et al. [Dulin, W. L. et al., Proc. Soc. Expl. Med., 107, 245 (1961)]. That is, 0.5 ml/100 g of 20% aqueous solution of glucose was subcutaneously administered to the backs of rats to prevent a decrease in blood glucose level because of the fasting. Immediately thereafter the test drug suspended in 0.5% aqueous C.M.C. solution was orally given, and 2 hours later, the animals underwent laparotomy under pentobarbital anesthesia, then blood was drawn from the vena cava. The obtained blood sample was allowed to stand for 30 minutes to complete the coagulation and was centrifuged to obtain the serum. Blood sugar level was measured according to the mutalotase GOD method [Trinder, Ann. Clin. Biochem., 6, 24 […]]. Asterisks indicate significant differences (*: p<0.05, **: p<0.01, ***: p<0.001) from the control.

Serum Phospholipid = experiment: Hypolipidemic effect: serum phospholipid; settings: 2 h
Method: as §1

[1] = 100 mg/kg oral, control 0.53 ± 0.03 (compounds 2-12), 0.52 ± 0.03 (compounds 15-24)
[2] = Rattus norvegicus, 100 mg/kg oral, vs control, read-out: Serum Free Fatty Acid Decrease
[3] = 100 mg/kg oral, control 44 ± 2 (compounds 4-12), 41 ± 1 (compounds 15-29)
[4] = Rattus norvegicus, 100 mg/kg oral, vs control, read-out: Total Serum Cholesterol Decrease
[5] = 100 mg/kg oral, control 65 ± 5 (compounds 2-12), 57 ± 4 (compounds 15-29)
[6] = Rattus norvegicus, 100 mg/kg oral, vs control, read-out: Serum Triglyceride Decrease
[7] = 100 mg/kg oral, control 79 ± 2 (compounds 2-12), 72 ± 2 (compounds 15-29)
[8] = Rattus norvegicus, 100 mg/kg oral, vs control, read-out: Serum Phospholipid Decrease

Compound | inhibition in vivo at 100 mg/kg (Blood Glucose; Table 2) [%] | Blood Glucose Level (Blood Glucose; Table 2, control 133 ± 6) [mg/dL] | Serum Free Fatty Acid Level (Serum Free Fatty Acid; [1]) [mEq/l] | inhibition in vivo at 100 mg/kg (Serum Free Fatty Acid; [2]) [%] | Total Serum Cholesterol Level (Total Serum Cholesterol; [3]) [mg/dL] | inhibition in vivo at 100 mg/kg (Total Serum Cholesterol; [4]) [%] | Serum Triglyceride Level (Serum Triglyceride; [5]) [mg/dL] | inhibition in vivo at 100 mg/kg (Serum Triglyceride; [6]) [%] | Serum Phospholipid Level (Serum Phospholipid; [7]) [mg/dL] | inhibition in vivo at 100 mg/kg (Serum Phospholipid; [8]) [%] | inhibition in vivo at 100 mg/kg (Blood Glucose; Table 3) [%] | Blood Glucose Level (Blood Glucose; Table 3, control 133 ± 4) [mg/dL] | further results
CCCCNC(=O)NS(=O)(=O)c1ccc(C)cc1 [Tolubutamide, reference compound] | 63.9 | 48 ± 1 | – | – | – | – | – | – | – | – | – | – | Serum Free Fatty Acid Level (Serum Free Fatty Acid; 50 mg/kg oral, control 0.53 ± 0.03): 0.44 ± 0.02 mEq/l; inhibition in vivo at 50 mg/kg (Serum Free Fatty Acid; Rattus norvegicus, 50 mg/kg oral, vs control, read-out: Serum Free Fatty Acid Decrease): 15.7%; Total Serum Cholesterol Level (Total Serum Cholesterol; 50 mg/kg oral, control 44 ± 2): 46 ± 1 mg/dL; inhibition in vivo at 50 mg/kg (Total Serum Cholesterol; Rattus norvegicus, 50 mg/kg oral, vs control, read-out: Total Serum Cholesterol Decrease): -4.5%; Serum Triglyceride Level (Serum Triglyceride; 50 mg/kg oral, control 65 ± 5): 53 ± 4 mg/dL; inhibition in vivo at 50 mg/kg (Serum Triglyceride; Rattus norvegicus, 50 mg/kg oral, vs control, read-out: Serum Triglyceride Decrease): 18.5%; Blood sugar effect (in words) (Blood Glucose; oral, rats): excessive hypoglycemia; Serum Phospholipid Level (Serum Phospholipid; 50 mg/kg oral, control 79 ± 2): 75 ± 2 mg/dL; inhibition in vivo at 50 mg/kg (Serum Phospholipid; Rattus norvegicus, 50 mg/kg oral, vs control, read-out: Serum Phospholipid Decrease): 5.1%
CCCCN1C(=O)NC(=O)C1=O [compound 4, 1-butylimidazolidinetrione] | 33.8 | 88 ± 7 | 0.27 ± 0.02 | 49.1 | 39 ± 1 | 11.4 | 23 ± 1 | 64.6 | 58 ± 1 | 26.6 | – | – | –
CC(C)CN1C(=O)NC(=O)C1=O [compound 5, 1-iso-butylimidazolidinetrione] | 39.1 | 81 ± 1 | – | – | – | – | – | – | – | – | – | – | –
CC(C)(C)N1C(=O)NC(=O)C1=O [compound 6, 1-tert-butylimidazolidinetrione] | 18 | 109 ± 4 | – | – | – | – | – | – | – | – | – | – | –
CCCCCCN1C(=O)NC(=O)C1=O [compound 7, 1-hexylimidazolidinetrione] | 23.3 | 102 ± 6 | – | – | – | – | 38 ± 3 | 41.5 | 66 ± 2 | 16.5 | – | – | –
CCCCCCCCCCN1C(=O)NC(=O)C1=O [compound 9, 1-decylimidazolidinetrione] | 18 | 109 ± 4 | – | – | – | – | – | – | – | – | – | – | –
O=C1NC(=O)N(C2CCCC2)C1=O [compound 10, 1-cyclopentylimidazolidinetrione] | 24.8 | 100 ± 4 | – | – | – | – | – | – | – | – | – | – | –
O=C1NC(=O)N(C2CCCCC2)C1=O [compound 11, 1-cyclohexylimidazolidinetrione] | 24.1 | 101 ± 2 | 0.34 ± 0.01 | 35.8 | 39 ± 1 | 11.4 | 27 ± 1 | 58.5 | 60 ± 2 | 24.1 | – | – | –
CN1C(=O)C(=O)N(C)C1=O [compound 12, 1,3-dimethylimidazolidinetrione] | 15 | 115 ± 4 | 0.37 ± 0.03 | 30.2 | 39 ± 1 | 11.4 | 35 ± 3 | 46.2 | 61 ± 2 | 22.8 | – | – | –
CCN1C(=O)C(=O)N(C2CCCC2)C1=O [compound 13, 1-cyclopentyl-3-ethylimidazolidinetrione] | 14.7 | 116 ± 5 | – | – | – | – | – | – | – | – | – | – | –
O=C1NC(=O)N(Cc2ccccc2F)C1=O [compound 16, 1-(2-fluorobenzyl)imidazolidinetrione] | – | – | – | – | 33 ± 2 | 19.5 | 30 ± 1 | 47.4 | 54 ± 1 | 25 | 11.3 | 118 ± 4 | –
O=C1NC(=O)N(Cc2cccc(F)c2)C1=O [compound 17, 1-(3-fluorobenzyl)imidazolidinetrione] | – | – | – | – | 37 ± 1 | 9.8 | 30 ± 1 | 47.4 | 58 ± 1 | 19.4 | 13.5 | 115 ± 2 | –
O=C1NC(=O)N(Cc2ccc(F)cc2)C1=O [compound 18, 1-(4-fluorobenzyl)imidazolidinetrione] | – | – | 0.42 ± 0.02 | 19.2 | 34 ± 1 | 17.1 | 30 ± 1 | 47.4 | 56 ± 1 | 22.2 | 20.3 | 106 ± 3 | –
O=C1NC(=O)N(Cc2ccc(Br)cc2)C1=O [compound 21, 1-(4-bromobenzyl)imidazolidinetrione] | – | – | 0.44 ± 0.02 | 15.2 | 36 ± 1 | 12.2 | 35 ± 2 | 38.6 | 57 ± 1 | 20.8 | – | – | –
O=C1NC(=O)N(Cc2ccc([N+](=O)[O-])cc2)C1=O [compound 23, 1-(4-nitrobenzyl)imidazolidinetrione] | – | – | – | – | – | – | 38 ± 2 | 33.3 | 65 ± 2 | 9.7 | 12 | 117 ± 3 | –
Cc1ccccc1CN1C(=O)NC(=O)C1=O [compound 24, 1-(2-methylbenzyl)imidazolidinetrione] | – | – | 0.45 ± 0.01 | 13.5 | 36 ± 1 | 12.2 | 30 ± 1 | 47.4 | 56 ± 1 | 22.2 | 12.8 | 116 ± 3 | –
Cc1cccc(CN2C(=O)NC(=O)C2=O)c1 [compound 25, 1-(3-methylbenzyl)imidazolidinetrione] | – | – | – | – | 36 ± 1 | 12.2 | 33 ± 2 | 42.1 | 57 ± 2 | 20.8 | 13.5 | 115 ± 3 | –
Cc1ccc(CN2C(=O)NC(=O)C2=O)cc1 [compound 26, 1-(4-methylbenzyl)imidazolidinetrione] | – | – | – | – | 37 ± 1 | 9.8 | 37 ± 1 | 35.1 | 58 ± 1 | 19.4 | 9.8 | 120 ± 2 | –
COc1ccc(CN2C(=O)NC(=O)C2=O)cc1 [compound 29, 1-(4-methoxybenzyl)imidazolidinetrione] | – | – | – | – | 36 ± 1 | 12.2 | 43 ± 3 | 24.6 | 58 ± 1 | 19.4 | 9.8 | 120 ± 2 | –
